Values quoted from earlier work, collected in patent US9079837B2, “Water-soluble fluorescent fullerene derivative, and preparation method thereof” (KOREA RESEARCH INSTITUTE OF BIOSCIENCE AND BIOTECHNOLOGY, priority 2010, dated 2015).
Values after ≈ are worked out from the molar mass of the structure shown. Counter-ions that a name gives are not always drawn. Like-named read-outs stand apart in the source and are kept apart here.

Assays:
[1] = water; Sivaraman et al., J. Org. Chem. 1992
[2] = for fluorescence quantum yield: literature value (J. Am. Chem. Soc. 1993, 1994), room temperature

Row | SMILES | solubility [1] [ng/mL] | fluorescence quantum yield ([2]; listed as fullerenes) | fluorescence quantum yield ([2]; listed as general fullerene) | fluorescence quantum yield of standard ([2]; standard value)
1 | c12c3c4c5c1c1c6c7c2c2c8c3c3c9c4c4c%10c5c5c1c1c6c6c%11c7c2c2c7c8c3c3c8c9c4c4c9c%10c5c5c1c1c6c6c%11c2c2c7c3c3c8c4c4c9c5c1c1c6c2c3c41 [C60 fullerene, buckminster fullerene (C60)] | 1.3e-05 (≈ 1.8e-05 nM) | about 1×10^−4 | 1×10^−4 | 
2 | C=C[C@H]1C[N@@]2CC[C@H]1C[C@H]2[C@H](O)c1ccnc2ccc(OC)cc12 [quinine sulfate] |  |  |  | 55×10^−2
